Data: US20210300939A1, “Single Molecule Compounds Providing Multi-Target Inhibition of BTK and Other Proteins and Methods of Use Thereof” (SignalRx Pharmaceuticals, Inc., priority 2018, published 2021)

Key:
[1] = target: T1, BRD4-1 (binding domain 1 of BRD4) (Homo sapiens, UniProt O60885); experiment: BRD4 binding domain 1 inhibition (Reaction Biology Corp.); settings: 10-point curve; read-out: Target IC50 BRD4-1
T1 construct: purchased Reaction Biology Corp., Malvern, Pa; (contract assay)
Description: (§1) The BTK, PI3K, and/or bromodomain inhibitory activity of a compound of the invention can be determined by methods known to the skilled artisan, or by procuring relevant analysis by a commercial vendor offering such services. […] In vivo, PI3K inhibition can be determined from target tissue biopsies by standard tissue processing in which cells are disrupted and Western Blot analysis is performed to determine the presence or absence of pAKT (substrate of PI3K) relative to a control sample. PI3K inhibition assays and BTK inhibition assays are known in the art and can be procured commercially through vendors such as Reaction Biology (Malvern, Pa.). The activity of a compound of the invention as an inhibitor of a bromodomain-containing protein, such as a BET protein, including BRD2, BRD3, BRD4, and/or BRDT, or an isoform or mutant thereof, may be determined in vitro, in vivo, or in a cell line. In vitro assays include assays that determine inhibition of bromodomain-containing proteins. Alternatively, inhibitor binding may be determined by running a competition experiment where a provided compound is incubated with a bromodomain-containing protein, such as a BET protein bound to known ligands, labeled or unlabeled. In vitro bromodomain inhibition assays can be performed using Alpha Screen Technology (Perkin Elmer Life and Analytical Sciences, Shelton, Conn.). In vivo bromodomain inhibition can be determined indirectly by evaluating the amount of a protein whose gene transcription is influenced or controlled by the bromodomain protein, for example, MYCN protein transcription is controlled by BRD4 (J. E. Delmore et al., Cell 2011, 146, 904-917; A. Puissant, Cancer Discov. 2013, 3, 308-323).
(§2) Compounds of the invention were analyzed for their ability to inhibit target proteins in vitro. PI3K alpha, gamma, and delta inhibition activity was determined by Thermo Fisher Scientific-Biosciences Life Sciences Solutions, Madison, Wis. The bromodomain protein inhibition (binding domain 1 and 2 of BRD4) was determined at Reaction Biology Corp., Malvern, Pa. BTK inhibition was performed by Reaction Biology Corp., Malvern, Pa.
(§3) Additional information regarding the testing procedures is available at each company's website on the internet. The IC50 data was calculated from a 10-point curve by the vendor and is compiled in ranges in the Table 6 below.

[2] = target: T2, BRD4-2 (binding domain 2 of BRD4) (Homo sapiens, UniProt O60885); experiment: BRD4 binding domain 2 inhibition (Reaction Biology Corp.); settings: 10-point curve; read-out: Target IC50 BRD4-2
T2 construct: purchased Reaction Biology Corp., Malvern, Pa; (contract assay)
Description: as §1, §2, §3

PI3K δ = target: T3, PI3K δ (Homo sapiens, UniProt O00329); experiment: PI3K delta inhibition (Thermo Fisher Scientific); format: biochemical; settings: 10-point curve; read-out: Target IC50 PI3K δ
T3 construct: purchased Thermo Fisher Scientific-Biosciences Life Sciences Solutions, Madison, Wis; (contract assay)
Description: as §1, §2, §3

PI3K γ = target: T4, PI3K γ (Homo sapiens, UniProt P48736); experiment: PI3K gamma inhibition (Thermo Fisher Scientific); format: biochemical; settings: 10-point curve; read-out: Target IC50 PI3K γ
T4 construct: purchased Thermo Fisher Scientific-Biosciences Life Sciences Solutions, Madison, Wis; (contract assay)
Description: as §1, §2, §3

BTK (WT) = target: T5, BTK (WT) (Homo sapiens, UniProt Q06187); experiment: native BTK inhibition (Reaction Biology Corp.); format: biochemical; settings: 10-point curve; read-out: Target IC50 BTK (WT)
T5 construct: purchased Reaction Biology Corp., Malvern, Pa; (contract assay)
Description: as §2, §3

BTK (C481S) = target: T6, BTK (C481S) (Homo sapiens, UniProt Q06187, C481S); experiment: BTK cysteine mutant C481S inhibition (Reaction Biology Corp.); format: biochemical; settings: for IC50: 10-point curve, read-out: Target IC50 BTK (C481S); for Ratio C481S/WT: ratio of the BTK IC50 values, C481S over wild-type
T6 construct: purchased Reaction Biology Corp., Malvern, Pa; (contract assay)
Description: as §2, §3

JeKo-1 cells [3] = experiment: Cell viability (Celltiter-Glo), JeKo-1; format: cell-based; settings: Homo sapiens, 48 hours
Description: (§4) The results of this experiment are shown in FIGS. 1A-1C, and in Table 7 below. Human mantle cell lymphoma cell lines were grown in 96 well plates with 5000 cells per well in RPMI 1640 media supplemented with 10% fetal bovine serum. Cells were treated for 48 hours with a concentration range of each compound from 50 nM to 50 uM. Cell viability a measure of viable cell numbers was determined using a Celltiter-Glo^R reagent for each concentration in order to construct an IC50 curve for each compound in each cell line.

Mino cells [4] = experiment: Cell viability (Celltiter-Glo), Mino; format: cell-based; settings: Homo sapiens, 48 hours
Description: as §4

Granta519 cells = experiment: Cell viability (Celltiter-Glo), Granta519; format: cell-based; settings: Homo sapiens, Granta-519, 48 hours
Description: as §4

[5] = tested on: Human mantle cell lymphoma cell lines; experiment: Cell viability, mantle cell lymphoma cell lines (overall conclusion); format: cell-based; settings: in vitro, 48 hours
Description: as §4

PI3K α = target: T7, PI3K α (Homo sapiens, UniProt P42336); experiment: PI3K alpha inhibition (Thermo Fisher Scientific); format: biochemical; settings: 10-point curve; read-out: Target IC50 PI3K α
T7 construct: purchased Thermo Fisher Scientific-Biosciences Life Sciences Solutions, Madison, Wis; (contract assay)
Description: as §1, §2, §3

JeKo-1 cells [6] = experiment: Percentage cells in apoptosis, JeKo-1; format: cell-based, human
Excerpt: (§5) Additionally apoptosis data was obtained in both JeKo and Mino cells for compound 7.

Mino cells [7] = experiment: Percentage cells in apoptosis, Mino; format: cell-based, human; settings: 24-hour
Excerpt: as §5

T5 sequence (Q06187 whole entry): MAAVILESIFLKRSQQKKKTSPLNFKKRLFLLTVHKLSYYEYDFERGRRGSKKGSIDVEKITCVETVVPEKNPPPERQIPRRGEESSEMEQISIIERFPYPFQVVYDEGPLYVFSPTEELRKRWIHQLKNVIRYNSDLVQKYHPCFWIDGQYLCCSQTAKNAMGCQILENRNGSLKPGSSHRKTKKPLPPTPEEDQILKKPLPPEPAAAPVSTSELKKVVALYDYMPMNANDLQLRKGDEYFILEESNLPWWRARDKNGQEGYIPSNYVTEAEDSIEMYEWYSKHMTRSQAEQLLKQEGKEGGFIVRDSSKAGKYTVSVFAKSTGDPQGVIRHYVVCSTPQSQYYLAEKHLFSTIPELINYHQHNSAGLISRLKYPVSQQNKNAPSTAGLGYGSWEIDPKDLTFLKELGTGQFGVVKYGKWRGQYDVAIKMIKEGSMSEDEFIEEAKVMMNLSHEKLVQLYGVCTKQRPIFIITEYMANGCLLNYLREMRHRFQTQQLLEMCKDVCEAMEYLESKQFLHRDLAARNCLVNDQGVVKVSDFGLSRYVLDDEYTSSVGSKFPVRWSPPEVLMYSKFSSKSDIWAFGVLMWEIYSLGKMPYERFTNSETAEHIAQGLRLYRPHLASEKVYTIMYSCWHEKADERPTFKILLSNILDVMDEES
T3 sequence (O00329 whole entry): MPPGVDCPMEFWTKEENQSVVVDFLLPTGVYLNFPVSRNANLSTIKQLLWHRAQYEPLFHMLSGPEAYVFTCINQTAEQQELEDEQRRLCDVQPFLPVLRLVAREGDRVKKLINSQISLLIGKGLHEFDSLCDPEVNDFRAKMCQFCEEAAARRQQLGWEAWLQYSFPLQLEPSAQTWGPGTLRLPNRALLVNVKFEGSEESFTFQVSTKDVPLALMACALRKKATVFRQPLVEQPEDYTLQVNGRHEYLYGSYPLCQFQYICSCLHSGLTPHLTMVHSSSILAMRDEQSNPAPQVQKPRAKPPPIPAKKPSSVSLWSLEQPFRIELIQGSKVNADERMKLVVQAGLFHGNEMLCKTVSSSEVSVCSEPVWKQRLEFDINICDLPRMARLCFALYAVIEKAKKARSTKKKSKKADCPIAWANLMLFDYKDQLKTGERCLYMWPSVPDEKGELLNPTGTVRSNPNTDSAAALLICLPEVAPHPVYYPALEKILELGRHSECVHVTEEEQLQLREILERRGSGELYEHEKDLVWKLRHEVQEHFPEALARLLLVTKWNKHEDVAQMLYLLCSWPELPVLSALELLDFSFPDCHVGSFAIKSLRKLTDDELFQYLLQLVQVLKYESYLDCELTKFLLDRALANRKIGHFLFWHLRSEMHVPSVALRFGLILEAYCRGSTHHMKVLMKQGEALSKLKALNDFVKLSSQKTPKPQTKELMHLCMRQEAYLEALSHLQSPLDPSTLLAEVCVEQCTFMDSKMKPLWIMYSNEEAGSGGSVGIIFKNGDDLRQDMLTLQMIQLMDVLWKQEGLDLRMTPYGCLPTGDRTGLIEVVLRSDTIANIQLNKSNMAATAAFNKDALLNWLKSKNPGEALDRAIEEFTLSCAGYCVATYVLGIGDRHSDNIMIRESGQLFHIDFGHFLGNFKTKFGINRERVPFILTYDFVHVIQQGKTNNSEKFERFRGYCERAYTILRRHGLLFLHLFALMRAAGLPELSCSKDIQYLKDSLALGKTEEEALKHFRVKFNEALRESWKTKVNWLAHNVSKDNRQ
T3 sequence (P27986 whole entry partner): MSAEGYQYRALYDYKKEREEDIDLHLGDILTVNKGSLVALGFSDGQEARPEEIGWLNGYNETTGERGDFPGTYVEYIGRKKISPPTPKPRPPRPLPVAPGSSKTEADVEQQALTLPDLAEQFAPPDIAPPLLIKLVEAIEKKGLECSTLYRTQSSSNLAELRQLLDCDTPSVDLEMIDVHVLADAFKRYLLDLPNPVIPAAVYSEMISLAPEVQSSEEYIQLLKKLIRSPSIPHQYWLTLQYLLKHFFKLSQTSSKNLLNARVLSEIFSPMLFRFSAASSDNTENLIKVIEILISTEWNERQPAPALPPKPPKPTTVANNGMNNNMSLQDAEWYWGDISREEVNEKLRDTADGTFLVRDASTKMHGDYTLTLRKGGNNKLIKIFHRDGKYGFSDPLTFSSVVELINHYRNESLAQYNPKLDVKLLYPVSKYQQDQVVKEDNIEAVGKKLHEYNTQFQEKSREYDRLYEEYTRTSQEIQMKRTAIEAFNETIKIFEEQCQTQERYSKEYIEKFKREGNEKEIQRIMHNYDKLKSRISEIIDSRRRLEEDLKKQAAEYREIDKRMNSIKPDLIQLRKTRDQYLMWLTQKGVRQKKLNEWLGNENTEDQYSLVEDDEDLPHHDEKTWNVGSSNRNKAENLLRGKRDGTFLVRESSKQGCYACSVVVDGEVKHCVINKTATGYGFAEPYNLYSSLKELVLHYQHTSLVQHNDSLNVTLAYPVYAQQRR
T4 sequence (P48736 whole entry): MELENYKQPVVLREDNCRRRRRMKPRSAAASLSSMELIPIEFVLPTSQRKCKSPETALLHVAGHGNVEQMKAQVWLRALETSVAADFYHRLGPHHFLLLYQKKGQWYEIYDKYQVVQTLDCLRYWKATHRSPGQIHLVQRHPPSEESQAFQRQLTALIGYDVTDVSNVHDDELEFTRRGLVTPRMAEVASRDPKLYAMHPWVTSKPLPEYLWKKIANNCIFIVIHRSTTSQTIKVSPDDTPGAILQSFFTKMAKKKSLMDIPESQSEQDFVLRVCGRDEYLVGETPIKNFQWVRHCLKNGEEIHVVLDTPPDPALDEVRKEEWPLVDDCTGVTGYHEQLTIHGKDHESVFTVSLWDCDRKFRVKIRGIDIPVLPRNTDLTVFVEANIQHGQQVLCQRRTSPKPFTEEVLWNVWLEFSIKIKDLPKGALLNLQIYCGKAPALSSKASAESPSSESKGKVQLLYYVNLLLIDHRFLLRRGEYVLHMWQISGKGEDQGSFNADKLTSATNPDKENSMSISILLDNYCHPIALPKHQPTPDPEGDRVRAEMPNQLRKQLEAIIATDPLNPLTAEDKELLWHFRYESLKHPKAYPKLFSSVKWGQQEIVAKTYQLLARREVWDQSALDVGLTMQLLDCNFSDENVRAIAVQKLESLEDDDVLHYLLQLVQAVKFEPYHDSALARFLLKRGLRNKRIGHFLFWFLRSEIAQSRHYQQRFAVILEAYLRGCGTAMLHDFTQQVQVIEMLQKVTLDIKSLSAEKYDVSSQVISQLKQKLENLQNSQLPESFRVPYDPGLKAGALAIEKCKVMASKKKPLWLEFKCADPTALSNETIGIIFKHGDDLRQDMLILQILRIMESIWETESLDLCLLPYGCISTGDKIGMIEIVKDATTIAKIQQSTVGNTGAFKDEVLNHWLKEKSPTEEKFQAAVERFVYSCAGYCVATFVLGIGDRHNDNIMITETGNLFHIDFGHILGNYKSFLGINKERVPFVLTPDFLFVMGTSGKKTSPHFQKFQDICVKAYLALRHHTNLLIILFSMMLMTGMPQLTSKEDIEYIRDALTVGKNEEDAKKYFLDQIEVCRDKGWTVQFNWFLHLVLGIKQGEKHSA
T6 sequence (Q06187 whole entry C481S): as the sequence (Q06187 whole entry) above, with C481S counted along it
T7 sequence (P42336 whole entry): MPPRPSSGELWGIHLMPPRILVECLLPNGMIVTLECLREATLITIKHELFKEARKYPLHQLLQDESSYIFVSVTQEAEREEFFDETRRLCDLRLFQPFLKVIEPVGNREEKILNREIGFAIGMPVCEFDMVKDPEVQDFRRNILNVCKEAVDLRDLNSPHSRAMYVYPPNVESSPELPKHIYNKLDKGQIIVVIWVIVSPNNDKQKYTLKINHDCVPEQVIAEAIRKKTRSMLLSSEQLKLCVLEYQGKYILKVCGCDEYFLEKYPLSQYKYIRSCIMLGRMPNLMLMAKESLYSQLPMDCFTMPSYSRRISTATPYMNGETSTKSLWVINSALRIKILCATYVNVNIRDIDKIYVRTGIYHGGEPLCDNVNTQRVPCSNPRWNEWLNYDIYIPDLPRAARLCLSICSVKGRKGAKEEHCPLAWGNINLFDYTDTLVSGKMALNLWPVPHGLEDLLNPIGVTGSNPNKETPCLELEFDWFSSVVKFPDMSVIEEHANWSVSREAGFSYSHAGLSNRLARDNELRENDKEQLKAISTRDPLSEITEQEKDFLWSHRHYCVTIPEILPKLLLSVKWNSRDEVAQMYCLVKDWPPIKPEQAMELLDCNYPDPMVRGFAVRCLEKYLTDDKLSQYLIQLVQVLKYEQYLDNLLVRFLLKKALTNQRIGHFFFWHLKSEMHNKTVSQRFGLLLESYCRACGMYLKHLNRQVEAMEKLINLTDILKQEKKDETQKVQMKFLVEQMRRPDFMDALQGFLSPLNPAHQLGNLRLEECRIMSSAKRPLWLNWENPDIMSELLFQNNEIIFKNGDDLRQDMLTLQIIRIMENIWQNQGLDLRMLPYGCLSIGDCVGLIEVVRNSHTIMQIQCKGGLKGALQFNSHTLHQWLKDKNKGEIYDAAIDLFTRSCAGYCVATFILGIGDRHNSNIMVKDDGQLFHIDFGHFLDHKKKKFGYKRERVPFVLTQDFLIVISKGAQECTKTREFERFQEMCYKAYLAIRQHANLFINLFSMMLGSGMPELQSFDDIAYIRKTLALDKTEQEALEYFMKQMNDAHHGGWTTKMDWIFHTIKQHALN
T7 sequence (P27986 whole entry partner): as the sequence (P27986 whole entry partner) above

IC50 [1] [µM]	IC50 [2] [µM]	IC50 (PI3K δ) [µM]	IC50 (PI3K γ) [µM]	IC50 (BTK (WT)) [µM]	IC50 (BTK (C481S)) [µM]	IC50 (PI3K α) [µM]	Ratio C481S/WT (BTK (C481S))	Compound	further results
< 1	1 to 10	< 1	< 1	10 to 30	10 to 30			O=c1cc(N2CCOCC2)oc2c(-c3ccc4c(c3)OCCO4)csc12 [Compound 0, reference compound]	IC50 (JeKo-1 cells [3]): < 1 µM; IC50 (Mino cells [4]): < 1 µM; IC50 (Granta519 cells): 1 to 10 µM; Potency in reducing mantle cell lymphoma viability as compared to Ibrutinib [5]: markedly more potent
10 to 30	1 to 10	< 1	< 1	1 to 10	10 to 30	< 1	8.1	C=CC(=O)Nc1cccc(-c2csc3c(=S)cc(N4CCOCC4)oc23)c1 [Compound 2, 1-[m-(5-Morpholino-7-thioxo-4-oxa-1-thia-3-indenyl)phenylamino]-2-propen-1-one]	
< 1	1 to 10	> 50	> 50	1 to 10	30 to 50	> 50	24.5	C=CC(=O)Nc1cccc(-c2csc3c(=O)cc(N4CCNCC4)oc23)c1.O=C(O)C(F)(F)F [Compound 3, 1-{m-[7-Oxo-5-(1-piperazinyl)-4-oxa-1-thia-3-indenyl]phenylamino}-2-propen-1-one]	
< 1	1 to 10	1 to 10	10 to 30	< 1	10 to 30	10 to 30	212	C=CC(=O)N1CCOc2ccc(-c3csc4c(=O)cc(N5CCN(C(=O)OC(C)(C)C)CC5)oc34)cc21 [Compound 4, tert-butyl 4-[3-(4-acryloyl-1-oxa-4-aza-3,4-dihydro-2H-naphth-6-yl)-7-oxo-4-oxa-1-thia-5-indenyl]-1-piperazinecarboxylate]	
< 1	1 to 10	1 to 10	> 50	< 1	10 to 30	10 to 30	52.0	C=CC(=O)N1CCOc2ccc(-c3csc4c(=O)cc(N5CCNCC5)oc34)cc21 [Compound 5, 1-{7-[7-Oxo-5-(1-piperazinyl)-4-oxa-1-thia-3-indenyl]-4-oxa-1-aza-2,3-dihydro-1H-naphth-1-yl}-2-propen-1-one]	
1 to 10	10 to 30	1 to 10	> 50	< 1	1 to 10	30 to 50	11.2	C=CC(=O)N1CCOc2ccc(-c3csc4c(=O)cc(N5CCN(C)CC5)oc34)cc21 [Compound 6, 1-(7[5-(4-Methyl-1-piperazinyl)-7-oxo-4-oxa-1-thia-3-indenyl]-4-oxa-1-aza-2,3-dihydro-1H-naphth-1-yl]-2-propen-1-one]	
< 1	1 to 10	< 1	< 1	< 1	> 50	< 1	>60	C=CC(=O)Nc1cc(OC)cc(-c2csc3c(=O)cc(N4CCOCC4)oc23)c1 [Compound 8, 1-[5-Methoxy-3-(5-morpholino-7-oxo-4-oxa-1-thia-3-indenyl)phenylamino]-2-propen-1-one]	
1 to 10	10 to 30	1 to 10	10 to 30			1 to 10		CCCCC/C=C/C(=O)Nc1cccc(-c2csc3c(=O)cc(N4CCOCC4)oc23)c1 [Compound 10, (E)-1-[m-(5-Morpholino-7-oxo-4-oxa-1-thia-3-indenyl)phenylamino]-2-octen-1-one]	
1 to 10	< 1	< 1	1 to 10	10 to 30	10 to 30	< 1	1.3	N#C/C(=C\C1CC1)C(=O)Nc1cccc(-c2csc3c(=O)cc(N4CCOCC4)oc23)c1 [Compound 11, (E)-3-Cyclopropyl-2-{[m-(5-morpholino-7-oxo-4-oxa-1-thia-3-indenyl)phenylamino]carbonyl}acrylonitrile]	
< 1	< 1	< 1	< 1	1 to 10	10 to 30	< 1	15.8	CC#CC(=O)Nc1cccc(-c2csc3c(=O)cc(N4CCOCC4)oc23)c1 [Compound 12, 1-[m-(5-Morpholino-7-oxo-4-oxa-1-thia-3-indenyl)phenylamino]-2-butyn-1-one]	
< 1	< 1	< 1	< 1	< 1	< 1	< 1	1402	C=CS(=O)(=O)N1CCOc2ccc(-c3csc4c(=O)cc(N5CCOCC5)oc34)cc21 [Compound 21, 5-Morpholino-3-[4-(vinylsulfonyl)-1-oxa-4-aza-3,4-dihydro-2H-naphth-6-yl]-4-oxa-1-thia-7-indenone]	
< 1	< 1	< 1	< 1	< 1	< 1	< 1	>20K	C=CS(=O)(=O)Nc1cccc(-c2csc3c(=O)cc(N4CCOCC4)oc23)c1 [II-18, 5-morpholino-3-[m-(vinylsulfonylamino)phenyl]-4-oxa-1-thia-7-indenone]	
								C=CC(=O)N1CCC[C@@H](n2nc(-c3ccc(Oc4ccccc4)cc3)c3c(N)ncnc32)C1 [Ibrutinib]	IC50 (JeKo-1 cells [3]): > 50 µM; IC50 (Mino cells [4]): 1 to 10 µM; IC50 (Granta519 cells): 10 to 30 µM; Percentage cells in apoptosis (JeKo-1 cells [6]; JeKo-1, 24-hour, Early): + (less than 5%); Percentage cells in apoptosis (JeKo-1 cells [6]; JeKo-1, 24-hour, Late): + (less than 5%); Percentage cells in apoptosis (JeKo-1 cells [6]; JeKo-1, 24-hour, Total): + (less than 5%); Percentage cells in apoptosis (JeKo-1 cells [6]; JeKo-1, 48-hour, Early): + (less than 5%); Percentage cells in apoptosis (JeKo-1 cells [6]; JeKo-1, 48-hour, Late): + (less than 5%); Percentage cells in apoptosis (JeKo-1 cells [6]; JeKo-1, 48-hour, Total): ++ (between 5% and 10%); Percentage cells in apoptosis (Mino cells [7]; Early): ++ (between 5% and 10%); Percentage cells in apoptosis (Mino cells [7]; Late): + (less than 5%); Percentage cells in apoptosis (Mino cells [7]; Total): +++ (between 10% and 30%)
								CN[C@@H]1C[C@H]2O[C@@](C)([C@@H]1OC)n1c3ccccc3c3c4c(c5c6ccccc6n2c5c31)C(=O)NC4 [Staurosporine]	Percentage cells in apoptosis (JeKo-1 cells [6]; JeKo-1, 24-hour, Early): ++ (between 5% and 10%); Percentage cells in apoptosis (JeKo-1 cells [6]; JeKo-1, 24-hour, Late): + (less than 5%); Percentage cells in apoptosis (JeKo-1 cells [6]; JeKo-1, 24-hour, Total): +++ (between 10% and 30%); Percentage cells in apoptosis (JeKo-1 cells [6]; JeKo-1, 48-hour, Early): +++ (between 10% and 30%); Percentage cells in apoptosis (JeKo-1 cells [6]; JeKo-1, 48-hour, Late): +++ (between 10% and 30%); Percentage cells in apoptosis (JeKo-1 cells [6]; JeKo-1, 48-hour, Total): ++++ (between 30% and 50%); Percentage cells in apoptosis (Mino cells [7]; Early): ++++ (between 30% and 50%); Percentage cells in apoptosis (Mino cells [7]; Late): ++++ (between 30% and 50%); Percentage cells in apoptosis (Mino cells [7]; Total): +++++ (more than 50%)
